We go through seven compounds from ChEMBL document CHEMBL1159294, “Bioactive Prenylhydroquinone Sulfates and a Novel C 31 Furanoterpene Alcohol Sulfate from the Marine Sponge, Ircinia Sp” (J Nat Prod, 1995).

Test [1] has as its target Receptor tyrosine-protein kinase erbB-2 (Homo sapiens, UniProt P04626). The test can be described thus: Inhibition of HER2 overexpressed in mouse 3T3 cells by ELISA. Format: cell-based, NIH3T3. The following applies: for Activity: NIH3T3.
The target of test [2] is T1, Neuropeptide Y receptor type 1 (Rattus norvegicus, UniProt P21555).
T1 sequence (P21555 whole entry): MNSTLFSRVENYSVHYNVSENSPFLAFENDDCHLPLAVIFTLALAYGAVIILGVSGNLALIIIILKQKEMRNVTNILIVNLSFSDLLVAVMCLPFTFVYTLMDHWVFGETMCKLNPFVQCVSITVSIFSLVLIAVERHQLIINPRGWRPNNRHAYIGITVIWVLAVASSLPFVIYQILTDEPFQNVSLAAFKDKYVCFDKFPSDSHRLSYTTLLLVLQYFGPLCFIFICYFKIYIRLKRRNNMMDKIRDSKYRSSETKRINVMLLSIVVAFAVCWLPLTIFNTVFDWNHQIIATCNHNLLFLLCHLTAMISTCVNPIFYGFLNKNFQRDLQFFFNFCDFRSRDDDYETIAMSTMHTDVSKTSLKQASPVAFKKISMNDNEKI
The test is described as follows: (§1) Displacement of [3H]NPY from neuropeptide Y receptor in rat cerebral cortices.

Test [3] has as its target Human immunodeficiency virus type 1 integrase (Human immunodeficiency virus 1) (UniProt Q7ZJM1). The test is described as follows: Inhibition of HIV1 integrase at 1 ug/ml by scintillation proximity assay.
Test [4] is filed under the species Rattus norvegicus. The test can be described thus: Displacement of radioiodinated somatostatins from rat somatostatin receptor.
Test [5] deals with T2, Neuropeptide Y receptor type 1 (Rattus norvegicus) (UniProt P21555).
T2 sequence (whole entry): T1 sequence (P21555 whole entry)
The test is described as §1.

The target of test [6] is T3, B2 bradykinin receptor (Homo sapiens) (UniProt P30411).
T3 sequence (whole entry): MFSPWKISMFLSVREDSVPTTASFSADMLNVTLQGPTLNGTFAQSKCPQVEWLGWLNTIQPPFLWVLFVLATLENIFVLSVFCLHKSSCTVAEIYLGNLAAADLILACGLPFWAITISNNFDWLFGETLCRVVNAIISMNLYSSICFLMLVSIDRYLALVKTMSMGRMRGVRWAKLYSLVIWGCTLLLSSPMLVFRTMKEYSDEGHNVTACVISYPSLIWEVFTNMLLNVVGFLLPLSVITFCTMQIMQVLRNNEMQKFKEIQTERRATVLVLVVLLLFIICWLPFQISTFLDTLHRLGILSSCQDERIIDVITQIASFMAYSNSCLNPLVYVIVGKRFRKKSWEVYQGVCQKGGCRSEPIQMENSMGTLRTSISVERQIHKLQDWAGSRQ
The test can be described thus: Displacement of [3H]bradykinin from human bradykinin B2 receptor expressed in baculovirus-infected SF21 cells.

Test [7] concerns the target T4, VIP peptides (Homo sapiens) (UniProt P01282).
T4 sequence (whole entry): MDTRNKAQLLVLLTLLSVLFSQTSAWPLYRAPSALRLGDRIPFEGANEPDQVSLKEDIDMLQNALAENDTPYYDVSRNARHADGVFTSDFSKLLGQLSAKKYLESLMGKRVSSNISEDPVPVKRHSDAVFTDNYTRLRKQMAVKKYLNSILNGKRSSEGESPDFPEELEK
The test can be described thus: Binding affinity to vasoactive intestinal peptide.

Test [8] deals with Human immunodeficiency virus type 1 integrase (Human immunodeficiency virus 1) (UniProt Q7ZJM1). The test can be described thus: Inhibition of HIV1 integrase at 5 ug/ml by scintillation proximity assay.
Chain of Human immunodeficiency virus type 1 integrase (Human immunodeficiency virus 1) (Q7ZJM1 as listed by the source): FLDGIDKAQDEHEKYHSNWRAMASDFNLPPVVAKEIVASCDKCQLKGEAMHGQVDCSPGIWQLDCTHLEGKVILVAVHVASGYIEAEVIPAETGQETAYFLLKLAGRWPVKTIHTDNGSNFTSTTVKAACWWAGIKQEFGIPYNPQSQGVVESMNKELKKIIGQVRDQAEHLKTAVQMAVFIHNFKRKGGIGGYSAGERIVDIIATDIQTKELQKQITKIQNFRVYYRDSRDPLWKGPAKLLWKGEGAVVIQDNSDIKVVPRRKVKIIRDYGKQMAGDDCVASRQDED
Test [9] can be described thus: Binding affinity to neurotensin receptor.
Test [10] in a line: Binding affinity to galanin receptor.
The target in test [11] is T5, Neuromedin-K receptor (Homo sapiens) (UniProt P29371).
T5 sequence (whole entry): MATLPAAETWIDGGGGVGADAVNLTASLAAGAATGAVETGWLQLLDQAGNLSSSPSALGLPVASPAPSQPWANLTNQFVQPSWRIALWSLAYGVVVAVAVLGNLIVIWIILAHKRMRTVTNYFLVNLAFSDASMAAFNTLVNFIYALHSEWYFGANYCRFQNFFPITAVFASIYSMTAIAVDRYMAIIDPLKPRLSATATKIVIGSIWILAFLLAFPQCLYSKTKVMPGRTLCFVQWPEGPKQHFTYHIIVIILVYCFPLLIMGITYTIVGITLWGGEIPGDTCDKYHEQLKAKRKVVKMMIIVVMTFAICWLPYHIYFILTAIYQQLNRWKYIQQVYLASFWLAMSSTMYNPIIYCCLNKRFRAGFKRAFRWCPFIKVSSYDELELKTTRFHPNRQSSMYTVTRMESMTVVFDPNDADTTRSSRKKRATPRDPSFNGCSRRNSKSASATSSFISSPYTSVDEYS
The test is described as follows: Binding affinity to NK3 receptor.

Calls of active or inactive are those of the source. No cut-off for these calls is given here.

Chain of Receptor tyrosine-protein kinase erbB-2 (P04626 whole entry): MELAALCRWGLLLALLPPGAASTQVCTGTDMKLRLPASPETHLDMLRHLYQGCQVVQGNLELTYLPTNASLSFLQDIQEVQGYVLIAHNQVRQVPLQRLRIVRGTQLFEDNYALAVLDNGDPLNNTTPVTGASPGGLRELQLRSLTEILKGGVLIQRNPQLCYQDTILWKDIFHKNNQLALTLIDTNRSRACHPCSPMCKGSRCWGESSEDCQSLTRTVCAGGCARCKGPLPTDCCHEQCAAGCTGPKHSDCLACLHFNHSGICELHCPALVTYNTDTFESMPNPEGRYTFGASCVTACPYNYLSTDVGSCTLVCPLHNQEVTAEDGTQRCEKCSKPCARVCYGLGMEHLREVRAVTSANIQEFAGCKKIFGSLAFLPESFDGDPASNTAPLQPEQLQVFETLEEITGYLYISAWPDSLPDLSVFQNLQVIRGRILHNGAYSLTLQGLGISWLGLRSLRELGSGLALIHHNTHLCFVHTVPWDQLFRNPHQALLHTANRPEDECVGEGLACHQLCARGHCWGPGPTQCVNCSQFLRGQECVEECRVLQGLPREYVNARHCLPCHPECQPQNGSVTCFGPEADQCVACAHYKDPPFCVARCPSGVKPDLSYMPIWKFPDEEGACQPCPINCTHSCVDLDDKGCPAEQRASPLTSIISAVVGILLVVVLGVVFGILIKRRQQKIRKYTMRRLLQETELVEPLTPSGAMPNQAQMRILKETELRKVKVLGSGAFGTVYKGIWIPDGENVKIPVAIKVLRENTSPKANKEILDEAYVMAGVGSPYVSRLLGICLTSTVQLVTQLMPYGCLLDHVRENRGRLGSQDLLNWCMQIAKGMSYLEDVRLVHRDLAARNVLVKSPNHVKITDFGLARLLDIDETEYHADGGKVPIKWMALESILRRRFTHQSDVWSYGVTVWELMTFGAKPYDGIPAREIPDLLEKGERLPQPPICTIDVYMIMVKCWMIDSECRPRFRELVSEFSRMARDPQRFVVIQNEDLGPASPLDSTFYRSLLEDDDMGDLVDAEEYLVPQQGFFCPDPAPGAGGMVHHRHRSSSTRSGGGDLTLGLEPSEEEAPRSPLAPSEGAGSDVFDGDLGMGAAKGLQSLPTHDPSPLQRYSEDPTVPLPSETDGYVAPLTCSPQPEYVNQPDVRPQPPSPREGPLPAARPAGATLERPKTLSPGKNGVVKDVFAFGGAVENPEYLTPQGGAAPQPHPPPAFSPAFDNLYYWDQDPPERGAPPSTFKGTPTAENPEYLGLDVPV

In test [1], `CC(C)=CCC/C(C)=C/CC/C(C)=C/CC/C(C)=C/CC/C(C)=C/CC/C(C)=C/Cc1cc(OS(=O)(=O)O)ccc1O` had a concentration for half-maximal inhibition (IC50) of 6.44 µM.
In the case of `CC(C)=CCC/C(C)=C/CC/C(C)=C/CC/C(C)=C/CC/C(C)=C/Cc1cc(OS(=O)(=O)O)ccc1O`, the results for the concentration for half-maximal inhibition (IC50) in test [2] and in [1] were 91.9 µM and 14.5 µM, respectively. Also, the inhibition in test [3] is 65%.
Take `CC(C)=CCC/C(C)=C/CC/C(C)=C/CC/C(C)=C/CC/C(C)=C/CC/C(C)=C/CCC1(C)C=Cc2cc(O)ccc2O1` (configuration not stated): the result in test [4], in [5], in test [6], in [7], in test [1] and in [8] was inactive. Also, the result in test [3], in test [9], in [10] and in test [11] was inactive.
Take `CC(C)=CCC/C(C)=C/CC/C(C)=C/CC/C(C)=C/CC/C(C)=C/CC/C(C)=C/CC/C(=C/Cc1cc(O)ccc1O)CO`: in test [1], 9.79 µM corresponded to half-maximal inhibition (IC50). This compound also came in with an inhibition in test [8] of 45%.
Regarding `CC(C)=CCC/C(C)=C/CC/C(C)=C/CC/C(C)=C/CC/C(C)=C/CC/C(C)=C/CC/C(C)=C/Cc1cc(OS(=O)(=O)O)ccc1O`, the half-inhibitory concentration (IC50) in test [1] was 11.6 µM.
Regarding `CC(C)=CCC/C(C)=C/CC/C(C)=C/CC/C(C)=C/CC/C(C)=C/CCC1(C)C=Cc2cc(O)ccc2O1` (configuration not stated), the result in test [4], in test [5], in [6], in test [7], in test [1] and in test [8] was inactive. Moreover, the outcome in [3], in test [9], in test [10] and in test [11] was inactive.
Regarding `CC(C)=CCC/C(C)=C/CC/C(C)=C/CC/C(C)=C/CCC1(C)C=Cc2cc(O)ccc2O1` (configuration not stated), the result in test [4], in test [5], in test [6], in test [7], in test [1] and in [8] was inactive. The outcome in [3], in [9], in test [10] and in [11] was inactive.
